Measurements published in patent publication US20060069132A1, “Azolecarboxamide herbicides” (priority 2004, published 2006).

Key:
cocklebur = assay: Test B pre-/postemergence herbicide test; format: in vivo, Xanthium strumarium; settings: for Cocklebur plant response rating: postemergence, visual rating, scale 0 (no effect) to 100 (complete control)
Summary of the method: (§1)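 Test chemicals in a non-phytotoxic solvent mixture with surfactant were applied preemergence to seeded species and postemergence to plants 2-18 cm tall (1- to 4-leaf stage); rice and barnyardgrass were also tested in a flooded paddy at the 2-leaf stage. Visual rating versus controls after 13-15 days in greenhouse, scale 0 (no effect) to 100 (complete control).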

blackgrass = assay: Test B postemergence herbicide test; format: in vivo, Alopecurus myosuroides; settings: postemergence, visual rating, scale 0 (no effect) to 100 (complete control)
Summary of the method: (§2)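 Paddy species grown to the 2-leaf stage under flooding; blackgrass sprayed postemergence at 2–18 cm (1- to 4-leaf stage). Plants kept in a greenhouse for 13 to 15 days, then visually rated against controls on 0 (no effect) to 100 (complete control).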

barnyardgrass [1] = assay: Test B flooded paddy test; format: in vivo, Echinochloa crus-galli; settings: 1000 g ai/ha, visual rating, scale 0 to 100 (0 no effect, 100 complete control), 13 to 15 days
Summary of the method: as §2

barnyardgrass [2] = assay: Test A pre-/postemergence herbicide test; format: in vivo, Echinochloa crus-galli
Summary of the method: (§3)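 Pre: seeded sandy loam, directed soil spray, compound in non-phytotoxic solvent + surfactant. Post: 1–2-leaf plants (2–10 cm), sprayed to runoff. Greenhouse ~10 d; visual injury vs untreated, 0–100 scale.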

[3] = system: small flower umbrella sedge; assay: Test B flooded paddy test; format: in vivo, Cyperus difformis; settings: 1000 g ai/ha, visual rating, scale 0 to 100 (0 no effect, 100 complete control), 13 to 15 days
Summary of the method: as §2

wheat = assay: Test B postemergence herbicide test; format: in vivo, Triticum aestivum; set-up: key to Wheat plant response rating: 0 = no effect, 100 = complete control; settings: postemergence, visual rating, scale 0 (no effect) to 100 (complete control)
Summary of the method: (§4)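 Each value is a visual 0–100 response rating taken against controls 13 to 15 days after treatment in the greenhouse. Plants received formulated chemical postemergence at the 1- to 4-leaf stage or, in flooded paddy, at the 2-leaf stage.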

pigweed = assay: Test B pre-/postemergence herbicide test; format: in vivo, Amaranthus retroflexus; settings: for Pigweed plant response rating: postemergence, visual rating, scale 0 (no effect) to 100 (complete control)
Summary of the method: (§5)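 Evaluation is visual, comparing treated with control plants on a scale where 0 means no effect and 100 means full control. Treatments were preemergence, or postemergence on seedlings 2–18 cm tall, and held 13–15 days in the greenhouse.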

redroot pigweed = assay: Test A pre-/postemergence herbicide test; format: in vivo, Amaranthus retroflexus
Summary of the method: as §3

large crabgrass [4] = assay: Test B pre-/postemergence herbicide test; format: in vivo, Digitaria sanguinalis; settings: for Crabgrass, Large plant response rating: postemergence, visual rating, scale 0 (no effect) to 100 (complete control)
Summary of the method: as §5

large crabgrass [5] = assay: Test A pre-/postemergence herbicide test; format: in vivo, Digitaria sanguinalis
Summary of the method: as §3

barnyardgrass [6] = assay: Test B pre-/postemergence herbicide test; format: in vivo, Echinochloa crus-galli; settings: for Barnyardgrass plant response rating: postemergence, visual rating, scale 0 (no effect) to 100 (complete control)
Summary of the method: as §1

rice [7] = assay: Test B flooded paddy test; format: in vivo, Oryza sativa; settings: 1000 g ai/ha, visual rating, scale 0 to 100 (0 no effect, 100 complete control), 13 to 15 days
Summary of the method: as §4

Surinam grass = assay: Test B pre-/postemergence herbicide test; format: in vivo, Urochloa decumbens; settings: for Surinam Grass plant response rating: postemergence, visual rating, scale 0 (no effect) to 100 (complete control)
Summary of the method: as §5

lambsquarters = assay: Test B pre-/postemergence herbicide test; format: in vivo, Chenopodium album; settings: for Lambsquarters plant response rating: postemergence, visual rating, scale 0 (no effect) to 100 (complete control)
Summary of the method: as §5

velvetleaf [8] = assay: Test A pre-/postemergence herbicide test; format: in vivo, Abutilon theophrasti
Summary of the method: as §3

rice [9] = assay: Test B pre-/postemergence herbicide test; format: in vivo, Oryza sativa; settings: preemergence
Summary of the method: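 Plants compared with untreated controls 13–15 days post-treatment and given a visual 0–100 injury score. Applications: preemergence to seeds; postemergence at 1- to 4-leaf (2–18 cm); paddy species flooded, 2-leaf stage. Vehicle non-phytotoxic, surfactant included.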

ducksalad = assay: Test B flooded paddy test; format: in vivo, Heteranthera limosa; settings: 1000 g ai/ha, visual rating, scale 0 to 100 (0 no effect, 100 complete control), 13 to 15 days
Summary of the method: as §2

morningglory [10] = assay: Test A pre-/postemergence herbicide test; format: in vivo, Ipomoea spp.
Summary of the method: as §3

morningglory [11] = assay: Test B pre-/postemergence herbicide test; format: in vivo, Ipomoea coccinea; settings: for Morningglory plant response rating: postemergence, visual rating, scale 0 (no effect) to 100 (complete control)
Summary of the method: as §1

giant foxtail [12] = assay: Test B pre-/postemergence herbicide test; format: in vivo, Setaria faberi; settings: for Foxtail, Giant plant response rating: postemergence, visual rating, scale 0 (no effect) to 100 (complete control)
Summary of the method: as §5

wild oat = assay: Test B postemergence herbicide test; format: in vivo, Avena fatua; settings: postemergence, visual rating, scale 0 (no effect) to 100 (complete control)
Summary of the method: as §4

corn = assay: Test B pre-/postemergence herbicide test; format: in vivo, Zea mays; settings: for Corn plant response rating: postemergence, visual rating, scale 0 (no effect) to 100 (complete control)
Summary of the method: as §5

giant foxtail [13] = assay: Test A pre-/postemergence herbicide test; format: in vivo, Setaria faberi
Summary of the method: as §3

velvetleaf [14] = assay: Test B pre-/postemergence herbicide test; format: in vivo, Abutilon theophrasti; settings: for Velvetleaf plant response rating: postemergence, visual rating, scale 0 (no effect) to 100 (complete control)
Summary of the method: as §5

[15] = 125 g ai/ha, 0 = no effect, 100 = complete control, preemergence
[16] = 500 g ai/ha, visual rating 0-100, 0 no effect, 100 complete control, preemergence
[17] = Postemergence, 500 g ai/ha, 0 to 100 scale, 0 no effect, 100 complete control
[18] = Postemergence, 2000 g ai/ha, 0 to 100 scale, 0 no effect, 100 complete control
[19] = Preemergence, 2000 g ai/ha, visual rating, 0 to 100 scale (0 no effect, 100 complete control)
[20] = preemergence, 500 g ai/ha, visual injury, 0 to 100 scale (0 no effect, 100 complete control)

## CCc1nc(C(C)(C)C)sc1C(=O)Nc1cccc(C(=O)NCC(F)(F)F)c1 [Compound 206]
cocklebur; [15]
  Cocklebur plant response rating (0 to 100 scale): 0
cocklebur; [16]
  Plant response rating, Cocklebur: 0
cocklebur; 125 g ai/ha
  Cocklebur plant response rating: 20
cocklebur; 500 g ai/ha
  Cocklebur plant response rating: 40
blackgrass; 125 g ai/ha
  Blackgrass plant response rating: 0
blackgrass; 500 g ai/ha
  Blackgrass plant response rating: 20
Barnyardgrass [1]
  Barnyardgrass plant response rating: 10
Barnyardgrass [2]; [17]
  Barnyardgrass plant response rating: 5
Barnyardgrass [2]; [18]
  Plant response rating, Barnyardgrass: 10
Barnyardgrass [2]; [19]
  Barnyardgrass plant response rating: 60
Barnyardgrass [2]; [20]
  Barnyardgrass plant response rating: 10
[3]
  Sedge, Umbrella plant response rating: 50
wheat; 125 g ai/ha
  Wheat plant response rating: 20
wheat; 500 g ai/ha
  Wheat plant response rating: 20
pigweed; [15]
  Pigweed plant response rating (0 to 100 scale): 0
pigweed; [16]
  Plant response rating, Pigweed: 80
pigweed; 125 g ai/ha
  Pigweed plant response rating: 30
pigweed; 500 g ai/ha
  Pigweed plant response rating: 40
Redroot pigweed; [17]
  Pigweed plant response rating: 15
Redroot pigweed; [18]
  Plant response rating, Pigweed: 20
Redroot pigweed; [19]
  Pigweed plant response rating: 60
Redroot pigweed; [20]
  Pigweed plant response rating: 25
Large crabgrass [4]; [15]
  Crabgrass, Large plant response rating (0 to 100 scale): 10
Large crabgrass [4]; [16]
  Plant response rating, Crabgrass, Large: 60
Large crabgrass [4]; 125 g ai/ha
  Crabgrass, Large plant response rating: 10
Large crabgrass [4]; 500 g ai/ha
  Crabgrass, Large plant response rating: 30
Large crabgrass [5]; [17]
  Crabgrass, Large plant response rating: 0
Large crabgrass [5]; [18]
  Plant response rating, Crabgrass, Large: 5
Large crabgrass [5]; [19]
  Crabgrass, Large plant response rating: 20
Large crabgrass [5]; [20]
  Crabgrass, Large plant response rating: 20
Barnyardgrass [6]; [15]
  Barnyardgrass plant response rating (0 to 100 scale): 10
Barnyardgrass [6]; [16]
  Plant response rating, Barnyardgrass: 70
Barnyardgrass [6]; 125 g ai/ha
  Barnyardgrass plant response rating: 0
Barnyardgrass [6]; 500 g ai/ha
  Barnyardgrass plant response rating: 10
Rice [7]
  Rice plant response rating: 30
Surinam grass; [15]
  Surinam Grass plant response rating (0 to 100 scale): 0
Surinam grass; [16]
  Plant response rating, Surinam Grass: 20
Surinam grass; 125 g ai/ha
  Surinam Grass plant response rating: 10
Surinam grass; 500 g ai/ha
  Surinam Grass plant response rating: 20
lambsquarters; [15]
  Lambsquarters plant response rating (0 to 100 scale): 0
lambsquarters; [16]
  Plant response rating, Lambsquarters: 30
lambsquarters; 125 g ai/ha
  Lambsquarters plant response rating: 30
lambsquarters; 500 g ai/ha
  Lambsquarters plant response rating: 80
Velvetleaf [8]; [17]
  Velvetleaf plant response rating: 5
Velvetleaf [8]; [18]
  Plant response rating, Velvetleaf: 20
Velvetleaf [8]; [19]
  Velvetleaf plant response rating: 10
Velvetleaf [8]; [20]
  Velvetleaf plant response rating: 15
Rice [9]; 125 g ai/ha, 0 = no effect, 100 = complete control
  Rice plant response rating (0 to 100 scale): 0
Rice [9]; 500 g ai/ha, visual rating 0-100, 0 no effect, 100 complete control
  Plant response rating, Rice: 30
ducksalad
  Ducksalad plant response rating: 40
Morningglory [10]; [17]
  Morningglory plant response rating: 0
Morningglory [10]; [18]
  Plant response rating, Morningglory: 0
Morningglory [10]; [19]
  Morningglory plant response rating: 25
Morningglory [10]; [20]
  Morningglory plant response rating: 5
Morningglory [11]; [15]
  Morningglory plant response rating (0 to 100 scale): 0
Morningglory [11]; [16]
  Plant response rating, Morningglory: 20
Morningglory [11]; 125 g ai/ha
  Morningglory plant response rating: 20
Morningglory [11]; 500 g ai/ha
  Morningglory plant response rating: 20
Giant foxtail [12]; [15]
  Foxtail, Giant plant response rating (0 to 100 scale): 0
Giant foxtail [12]; [16]
  Plant response rating, Foxtail, Giant: 20
Giant foxtail [12]; 125 g ai/ha
  Foxtail, Giant plant response rating: 20
Giant foxtail [12]; 500 g ai/ha
  Foxtail, Giant plant response rating: 20
Wild oat; 125 g ai/ha
  Oat, Wild plant response rating: 20
Wild oat; 500 g ai/ha
  Oat, Wild plant response rating: 20
corn; [15]
  Corn plant response rating (0 to 100 scale): 0
corn; [16]
  Plant response rating, Corn: 40
corn; 125 g ai/ha
  Corn plant response rating: 20
corn; 500 g ai/ha
  Corn plant response rating: 20
Giant foxtail [13]; [17]
  Foxtail, Giant plant response rating: 0
Giant foxtail [13]; [18]
  Plant response rating, Foxtail, Giant: 0
Giant foxtail [13]; [19]
  Foxtail, Giant plant response rating: 20
Giant foxtail [13]; [20]
  Foxtail, Giant plant response rating: 0
Velvetleaf [14]; [15]
  Velvetleaf plant response rating (0 to 100 scale): 0
Velvetleaf [14]; [16]
  Plant response rating, Velvetleaf: 10
Velvetleaf [14]; 125 g ai/ha
  Velvetleaf plant response rating: 20
Velvetleaf [14]; 500 g ai/ha
  Velvetleaf plant response rating: 20
